Experimental findings from PubChem BioAssay (NCI) are described below.

Structures are written as SMILES.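 Cells were grown in 96-well plates and exposed to each compound for 48 hours at five concentrations; endpoints were interpolated linearly between bracketing concentrations, or set to the highest concentration if not reached. GI50: concentration for 50% inhibition of growth. TGI is the concentration that stops growth completely.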

Among the test systems are 786-0 renal; CCRF-CEM leukemia; K-562 leukemia; MDA-MB-231 breast; SK-MEL-28 melanoma; SN12C renal; SNB-19 CNS.
What all share (assay): growth of human tumour cells (NCI), 48 h

Regarding `CC1=C(C)C(=O)c2c(c(C(=O)c3ccccc3)c3nc4ccccc4n3c2C)C1=O`, the GI50 with 786-0 renal was 26.8 µM; in the assay on CCRF-CEM leukemia, above 100 µM; with K-562 leukemia, above 100 µM; in the assay with MDA-MB-231 breast, 17.7 µM; with SK-MEL-28 melanoma it was above 100 µM; in the assay with SN12C renal it was above 100 µM. For the same molecule, the GI50 with SNB-19 CNS is 38.1 µM. The TGI was 95.2 µM in the assay on 786-0 renal; above 100 µM in the assay with CCRF-CEM leukemia; above 100 µM with K-562 leukemia; 46 µM in the assay on MDA-MB-231 breast; above 100 µM in the assay with SK-MEL-28 melanoma; above 100 µM with SN12C renal. Further, the TGI in the assay on SNB-19 CNS was above 100 µM.

With `C=C1C(=O)O[C@@H]2C[C@@H]1CC[C@]1(C)O[C@H]1CC[C@@]1(C)O[C@@H]1CC[C@@]2(C)O`, the GI50 in the assay on 786-0 renal was 27.7 µM; with CCRF-CEM leukemia, 17.5 µM; with K-562 leukemia, 19.5 µM; in the assay on MDA-MB-231 breast it was 25.1 µM; in the assay with SK-MEL-28 melanoma, 17.5 µM; in the assay on SN12C renal, 22.5 µM. In the assay on SNB-19 CNS, the GI50 is 68.6 µM. The TGI in the assay on 786-0 renal is 89.9 µM; with CCRF-CEM leukemia, 49.4 µM; in the assay on K-562 leukemia, above 100 µM; with MDA-MB-231 breast it was 68.4 µM; with SK-MEL-28 melanoma it was 43.1 µM; in the assay on SN12C renal, 61.5 µM. For the same molecule, the TGI with SNB-19 CNS was above 100 µM.

With `COc1ccc(C(=O)Cn2c(C(=O)c3ccc(Cl)cc3)nc3ccccc32)cc1`, the GI50 in the assay with 786-0 renal is 13.2 µM; in the assay with CCRF-CEM leukemia, 3.02 µM; with K-562 leukemia, 3.33 µM; in the assay on MDA-MB-231 breast, 24.8 µM; with SK-MEL-28 melanoma it was above 22.4 µM; in the assay with SN12C renal, 97.8 µM. The GI50 in the assay with SNB-19 CNS is 46.5 µM. Besides, the TGI is above 27.3 µM with 786-0 renal; above 100 µM with CCRF-CEM leukemia; above 100 µM in the assay with K-562 leukemia; above 100 µM in the assay on MDA-MB-231 breast; above 100 µM in the assay with SK-MEL-28 melanoma; above 100 µM with SN12C renal. The TGI in the assay with SNB-19 CNS was above 100 µM.

For the molecule `CNc1ccccc1C(=O)N/N=C/C=C/c1ccccc1`, the GI50 was 15.6 µM in the assay with 786-0 renal; 2.39 µM in the assay on CCRF-CEM leukemia; 0.44 µM with K-562 leukemia; 4.11 µM in the assay with MDA-MB-231 breast; 6.88 µM in the assay with SK-MEL-28 melanoma; 3.22 µM in the assay on SN12C renal. In the assay on SNB-19 CNS, the GI50 was 7.01 µM. Besides, the TGI with 786-0 renal is above 100 µM; in the assay on CCRF-CEM leukemia it was 97 µM; with K-562 leukemia it was above 100 µM; in the assay with MDA-MB-231 breast, 62 µM; in the assay with SK-MEL-28 melanoma, above 100 µM; in the assay with SN12C renal, above 100 µM. For the same molecule, in the assay with SNB-19 CNS, the TGI was above 100 µM.

`COc1cccc(-c2nn(-c3ccccc3)cc2-c2ccnc(NCCNS(=O)(=O)c3ccc(Cl)cc3)c2)c1`: the GI50 with 786-0 renal was 6.61 µM; with CCRF-CEM leukemia, 3.47 µM; with K-562 leukemia, 3.73 µM; in the assay with MDA-MB-231 breast, 3.55 µM; with SK-MEL-28 melanoma, 7.99 µM; in the assay with SN12C renal it was 5.45 µM. In addition, the GI50 in the assay with SNB-19 CNS was 7.44 µM. The TGI with 786-0 renal, in the assay on CCRF-CEM leukemia, with K-562 leukemia, in the assay on MDA-MB-231 breast, in the assay on SK-MEL-28 melanoma and with SN12C renal was above 100 µM in each case. The molecule further showed a TGI with SNB-19 CNS above 100 µM.

Turning to `C[Si](C)(C)C#CCO[Si](C)(C)C`, the TGI with 786-0 renal is above 78.8 µM; in the assay with CCRF-CEM leukemia it was above 64 µM; in the assay on K-562 leukemia, above 100 µM; in the assay with MDA-MB-231 breast, above 92.6 µM; in the assay with SK-MEL-28 melanoma, above 100 µM; with SN12C renal, above 100 µM. The molecule further returned a TGI with SNB-19 CNS above 100 µM.

On to `COc1ccc(C(=O)Cn2c(C(=O)c3ccc(OC)cc3)nc3ccccc32)cc1`, for which the GI50 in the assay on 786-0 renal is 4.54 µM; in the assay on CCRF-CEM leukemia, 1.69 µM; with K-562 leukemia it was 0.483 µM; with MDA-MB-231 breast, 9.23 µM; in the assay on SK-MEL-28 melanoma it was 3 µM; in the assay on SN12C renal it was above 92.9 µM. Moreover, in the assay on SNB-19 CNS, the GI50 was 4.37 µM. The TGI with 786-0 renal was above 100 µM; in the assay with CCRF-CEM leukemia, above 42.8 µM; with K-562 leukemia, above 100 µM; in the assay on MDA-MB-231 breast, above 100 µM; in the assay with SK-MEL-28 melanoma, above 100 µM; with SN12C renal, above 100 µM. This molecule also registered a TGI in the assay with SNB-19 CNS above 100 µM.

`CS(=O)(=O)c1ccc(Oc2cc(F)cc(C#N)c2)c2c1[C@H](O)[C@H](F)[C@@H]2F`: the GI50 in the assay on 786-0 renal, with CCRF-CEM leukemia, in the assay with K-562 leukemia, in the assay with MDA-MB-231 breast, in the assay on SK-MEL-28 melanoma and with SN12C renal was above 100 µM each time. Also, the GI50 in the assay with SNB-19 CNS is above 100 µM. Besides, the TGI with 786-0 renal, in the assay with CCRF-CEM leukemia, with K-562 leukemia, with MDA-MB-231 breast, in the assay on SK-MEL-28 melanoma and in the assay on SN12C renal was above 100 µM in each case. The same molecule displayed a TGI with SNB-19 CNS above 100 µM.

Turning to `Nc1c(C(=O)Nc2ccccc2)sc2nc3c(cc12)CCCCCC3`, the GI50 is 0.551 µM in the assay on 786-0 renal; 0.345 µM in the assay on CCRF-CEM leukemia; 0.307 µM in the assay on K-562 leukemia; 0.892 µM in the assay with MDA-MB-231 breast; 1.1 µM with SK-MEL-28 melanoma; 1.57 µM in the assay on SN12C renal. Moreover, the GI50 with SNB-19 CNS is 0.476 µM. In addition, the TGI was 3.93 µM in the assay with 786-0 renal; above 100 µM in the assay with CCRF-CEM leukemia; above 41.3 µM in the assay on K-562 leukemia; 43.1 µM with MDA-MB-231 breast; 21.8 µM in the assay on SK-MEL-28 melanoma; 60.2 µM with SN12C renal. The molecule further came in with a TGI with SNB-19 CNS of 24.9 µM.

On to `CCn1c(=O)c(-c2ccn[nH]2)cc2c(C)nc(N)nc21`, for which the GI50 with 786-0 renal is 0.511 µM; in the assay with CCRF-CEM leukemia, 1.68 µM; with K-562 leukemia it was 14.7 µM; in the assay with MDA-MB-231 breast, 1.45 µM; with SK-MEL-28 melanoma, 0.97 µM; in the assay with SN12C renal it was 1.4 µM. Besides, in the assay with SNB-19 CNS, the GI50 is 4.57 µM. The TGI in the assay on 786-0 renal is 5.59 µM; in the assay on CCRF-CEM leukemia, above 100 µM; with K-562 leukemia, above 100 µM; in the assay on MDA-MB-231 breast, 12 µM; in the assay with SK-MEL-28 melanoma it was 6.13 µM; in the assay with SN12C renal, above 100 µM. Moreover, the TGI in the assay with SNB-19 CNS is above 100 µM.
